System: Nitrosomonas europaea IF014298
Test: in-vitro nitrification bacteria biological luminescence test
Assay type: cell-based
Method: Observation was conducted using in-vitro nitrification bacteria. Explanation is first made of preparation of suspension of the nitrification bacteria used for observation.
The nitrification bacteria (Nitrosomonas europaea IF014298. See Non-Patent Reference 4.) with a bacteria-origin luciferase gene (luxAB) introduced therein was aerobically cultivated in P culture media containing 25 mg/1000 cm^3 of kanamycin at 30° C. for 7-9 days, and after washing, suspended in fresh P culture media, thereby nitrification bacteria suspension was prepared. This nitrification bacteria suspension was kept in the dark place for 30 minutes or longer before experiment.
The composition of P culture media consists of 2.5 g of (NH4)2SO4, 0.7 g of KH2PO4, 13.5 g of Na2HPO4, 0.5 g of NaHCO3, 100 mg of MgSO4-7H2O, 5 mg of CaCl2-2H2O, 1 mg of Fe-EDTA, and 1000 cm^3 of water, and its pH was 8.0.
Nitrification function was evaluated by, after mixing in-vitro the aqueous solution of nitrification bacteria suspension consisting of 0.25 cm^3 of said nitrification bacteria suspension and 0.2 cm^3 of water and 0.01 cm^3 of the sample solution of each Example and Comparative Example, measuring biological luminescence accompanying nitrification reaction during cultivation at 15° C. for 30 minutes using a luminometer (Turner Designs, TD20/20). […] Therefore, the luminescence of the case where a sample solution of each Example and Comparative Example is added to the aqueous solution of nitrification bacteria suspension divided by the luminescence of the case of aqueous bacteria suspension without addition of a sample solution of each Example and Comparative Example was defined as nitrification-inhibitory ratio.
The concentration of sample solutions of each Example and Comparative Example in this case was 20 ppm.
Measurement was conducted as mentioned above with the concentration of sample solutions of each Example and Comparative Example in the aqueous nitrification bacteria suspension varying 0-20 ppm.

[1] = sample concentration 20 ppm, 15° C., 30 minutes

`CCCCC/C=C\C/C=C\C/C=C\C/C=C\CCCC(=O)O` [arachidonic acid, reference compound] was tested, and the “inhibition of nitrification reaction (in words)” value (shortened to “inhibition … (in words)”) (sample concentration 20 ppm) was “not inhibited”.
For `N#CN=C(N)N` [dicyandiamide, reference compound], the “80% inhibition concentration (concentration at which nitrification-inhibitory ratio was 80%)” value was 185 ppm.
With `CCCCC/C=C\C/C=C\CCCCCCCC(=O)OCC` [ethyl linoleate, reference compound] the “inhibition … (in words)” value (sample concentration 20 ppm) was “not inhibited”.
In the case of `CCCCC/C=C\C/C=C\CCCCCCCC(=O)O` [linoleic acid], the “80% inhibition concentration (concentration at which nitrification-inhibitory ratio was 80%)” value is reported as “about 16 ppm”, the nitrification-inhibitory ratio (sample concentration 8 ppm) is reported as 40% and the nitrification-inhibitory ratio (sample concentration 12 ppm) is reported as 65%. For the same compound, the nitrification-inhibitory ratio (sample concentration 16 ppm) was 90% and the nitrification-inhibitory ratio [1] was 95%.
In the case of `CCCCC/C=C\C/C=C\CCCCCCCC(=O)OC` [methyl linoleate], the “80% inhibition concentration (concentration at which nitrification-inhibitory ratio was 80%)” value is reported as roughly 8 ppm, the nitrification-inhibitory ratio (sample concentration 8 ppm) is reported as 80% and the nitrification-inhibitory ratio (sample concentration 12 ppm) is reported as 90%. It also gave a nitrification-inhibitory ratio (sample concentration 16 ppm) of 92% and a nitrification-inhibitory ratio [1] of 95%.
`CCCCCCCC/C=C\CCCCCCCC(=O)OC` [methyl oleate, reference compound] was tested, and the “inhibition … (in words)” value (sample concentration 20 ppm) was “not inhibited”.
For `CC/C=C\C/C=C\C/C=C\CCCCCCCC(=O)OC` [methyl α-linolenate, reference compound], the “inhibition … (in words)” value (sample concentration 20 ppm) was “not inhibited”.
For `Clc1cccc(C(Cl)(Cl)Cl)n1` [nitrapyrin, 2-chloro-6-Trichloromethylpyridine, reference compound], the “80% inhibition concentration (concentration at which nitrification-inhibitory ratio was 80%)” value was 4 ppm.
In the case of `CCCCCCCC/C=C\CCCCCCCC(=O)O` [oleic acid, reference compound], the “inhibition … (in words)” value (sample concentration 20 ppm) is reported as “not inhibited”.
In the case of `CCCCCCCCCCCCCCCCCC(=O)O` [stearic acid, reference compound], the “inhibition … (in words)” value (sample concentration 20 ppm) is reported as “not inhibited”.
`CC/C=C\C/C=C\C/C=C\CCCCCCCC(=O)O` [α-linolenic acid] was tested, and the “80% inhibition concentration (concentration at which nitrification-inhibitory ratio was 80%)” value was roughly 12 ppm, the nitrification-inhibitory ratio (sample concentration 8 ppm) was 40% and the nitrification-inhibitory ratio (sample concentration 12 ppm) was 80%. The nitrification-inhibitory ratio (sample concentration 16 ppm) was 90% and the nitrification-inhibitory ratio [1] was 95%.
With `CCCCC/C=C\C/C=C\C/C=C\CCCCC(=O)O` [γ-linolenic acid] the “80% inhibition concentration (concentration at which nitrification-inhibitory ratio was 80%)” value was “about 16 ppm”, the nitrification-inhibitory ratio (sample concentration 8 ppm) was 30% and the nitrification-inhibitory ratio (sample concentration 12 ppm) was 72%. It also gave a nitrification-inhibitory ratio (sample concentration 16 ppm) of 90% and a nitrification-inhibitory ratio [1] of 95%.
